Columns and labels:
Experiment in all cases: In vitro competitive activity-based protein profiling (Table 2, % inhibition at 1 μM)
Format in all cases: biochemical
[1] = target: T1, FAAH (Mus musculus, UniProt O08914); settings: read-out: % Inhibition at 1 μM FAAH
T1 sequence (O08914 1-579): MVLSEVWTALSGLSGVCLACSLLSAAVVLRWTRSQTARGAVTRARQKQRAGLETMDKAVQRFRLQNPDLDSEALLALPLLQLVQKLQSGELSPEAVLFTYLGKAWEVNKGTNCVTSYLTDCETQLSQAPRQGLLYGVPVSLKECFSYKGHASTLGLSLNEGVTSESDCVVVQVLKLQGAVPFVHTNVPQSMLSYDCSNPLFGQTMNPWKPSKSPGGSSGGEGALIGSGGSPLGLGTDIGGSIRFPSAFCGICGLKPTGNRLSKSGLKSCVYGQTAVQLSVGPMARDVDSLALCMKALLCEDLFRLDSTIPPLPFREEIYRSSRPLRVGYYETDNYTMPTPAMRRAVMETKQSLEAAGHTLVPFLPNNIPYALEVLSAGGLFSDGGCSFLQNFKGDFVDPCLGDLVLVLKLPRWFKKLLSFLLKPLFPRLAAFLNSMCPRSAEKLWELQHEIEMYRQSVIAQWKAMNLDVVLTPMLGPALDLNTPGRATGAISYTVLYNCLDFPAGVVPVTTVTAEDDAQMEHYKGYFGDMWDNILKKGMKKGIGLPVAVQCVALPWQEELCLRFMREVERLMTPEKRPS
Experimental: (§1) After 30 min, FP—Rh (1.0 μL, 50 μM in DMSO) was added and the mixture was incubated for another 30 min at 37° C. Reactions were quenched with SDS loading buffer (50 μL-4×) and run on SDS-PAGE. Following gel imaging, serine hydrolase activity was determined by measuring fluorescent intensity of gel bands corresponding to MAGL, ABHD6 and FAAH using ImageJ 1.43 u software.
(§2) hMAGL was expressed in HEK293T cells according to previously reported methods (see Niphakis, Long, and Blankman, J. L., et al. (2007) Chem. Biol. 14:1347-1356). Cell lysates were diluted with mock proteomes for use in competitive ABPP experiments.

[2] = target: T2, ABHD6 (Mus musculus, UniProt Q8R2Y0); settings: read-out: % Inhibition at 1 μM ABHD6
T2 sequence (Q8R2Y0 1-336): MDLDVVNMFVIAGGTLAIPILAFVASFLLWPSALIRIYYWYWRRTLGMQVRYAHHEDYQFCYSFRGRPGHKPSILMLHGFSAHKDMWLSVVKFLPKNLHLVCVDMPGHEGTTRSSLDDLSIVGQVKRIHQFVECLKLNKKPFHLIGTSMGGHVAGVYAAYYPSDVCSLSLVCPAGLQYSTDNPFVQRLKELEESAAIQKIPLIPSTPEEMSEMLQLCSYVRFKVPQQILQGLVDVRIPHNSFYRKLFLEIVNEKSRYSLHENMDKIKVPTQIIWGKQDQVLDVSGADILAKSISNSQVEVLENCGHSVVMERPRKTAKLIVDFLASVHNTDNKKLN
Experimental: as §1, §2

[3] = target: T3, MAGL (Mus musculus, UniProt O35678); settings: read-out: % Inhibition at 1 μM MAGL
T3 sequence (O35678 1-303): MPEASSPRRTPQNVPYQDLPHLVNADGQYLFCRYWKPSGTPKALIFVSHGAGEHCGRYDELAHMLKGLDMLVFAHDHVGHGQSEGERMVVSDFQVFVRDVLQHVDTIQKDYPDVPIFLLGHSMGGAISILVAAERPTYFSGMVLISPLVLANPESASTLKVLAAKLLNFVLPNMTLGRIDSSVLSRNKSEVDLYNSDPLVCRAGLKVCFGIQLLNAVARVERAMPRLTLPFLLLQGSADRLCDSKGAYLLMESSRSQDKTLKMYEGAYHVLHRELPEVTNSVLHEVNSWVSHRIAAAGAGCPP
Experimental: After 30 min, FP—Rh (1.0 μL, 50 μM in DMSO) was added and the mixture was incubated for another 30 min at 37° C. Reactions were quenched with SDS loading buffer (50 μL-4×) and run on SDS-PAGE.
Cell lysates were diluted with mock proteomes for use in competitive ABPP experiments.

| Compound | inhibition at 1 µM [1] [%] | inhibition at 1 µM [2] [%] | inhibition at 1 µM [3] [%] |
| --- | --- | --- | --- |
| Cc1c(CN2CC3CN(C(=O)ON4C(=O)CCC4=O)CC3C2)cccc1N1CCC(NS(C)(=O)=O)CC1 (stereo not drawn) [Example 140, 2,5-dioxopyrrolidin-1-yl 5-[[3-(4-methanesulfonamidopiperidin-1-yl)-2-methylphenyl]methyl]-octahydropyrrolo[3,4-c]pyrrole-2-carboxylate] | < 25 | < 25 | 25 to 75 |
| Cn1cc(CN2CC3CN(C(=O)OC(C(F)(F)F)C(F)(F)F)CC3C2)c(C2CCN(S(C)(=O)=O)CC2)n1 (stereo not drawn) [Example 56, 1,1,1,3,3,3-Hexafluoropropan-2-yl 5-[[3-(1-methanesulfonylpiperidin-4-yl)-1-methyl-1H-pyrazol-4-yl]methyl]-octahydropyrrolo[3,4-c]pyrrole-2-carboxylate] | < 25 | < 25 | > 75 |
| O=C(ON1C(=O)CCC1=O)N1CC2CN(Cc3ccc(F)cc3N3CCCC3)CC2C1 (stereo not drawn) [Example 90, 2,5-Dioxopyrrolidin-1-yl 5-[[4-fluoro-2-(pyrrolidin-1-yl)phenyl]methyl]-octahydropyrrolo[3,4-c]pyrrole-2-carboxylate] | 25 to 75 | < 25 | 25 to 75 |
| O=C(ON1C(=O)CCC1=O)N1CC2CN(Cc3ccc(Cl)cc3N3CCN4CCC[C@@H]4C3)CC2C1 (stereo partly drawn) [Example 109, 2,5-Dioxopyrrolidin-1-yl 5-(4-chloro-2-((R)-hexahydropyrrolo[1,2-a]pyrazin-2(1H)-yl)benzyl)-hexahydropyrrolo[3,4-c]pyrrole-2(1H)-carboxylate] | < 25 | < 25 | < 25 |
| CC(=O)NC1CCN(c2cccc(CN3CC4CN(C(=O)ON5C(=O)CCC5=O)CC4C3)c2C)CC1 (stereo not drawn) [Example 142, 2,5-dioxopyrrolidin-1-yl 5-[[3-(4-acetamidopiperidin-1-yl)-2-methylphenyl]methyl]-octahydropyrrolo[3,4-c]pyrrole-2-carboxylate] | < 25 | < 25 | < 25 |
| O=C(OC(C(F)(F)F)C(F)(F)F)N1CC2CN(Cc3ccc(F)cc3N3CCOCC3)CC2C1 (stereo not drawn) [Example 14, 1,1,1,3,3,3-Hexafluoropropan-2-yl 5-[[4-fluoro-2-(morpholin-4-yl)phenyl]methyl]-octahydropyrrolo[3,4-c]pyrrole-2-carboxylate] | 25 to 75 | < 25 | > 75 |
| CC(C)n1cc(CN2CC3CN(C(=O)ON4C(=O)CCC4=O)CC3C2)c(-c2ccccc2)n1 (stereo not drawn) [Example 117, 2,5-Dioxopyrrolidin-1-yl 5-[[3-phenyl-1-(propan-2-yl)-1H-pyrazol-4-yl]methyl]-octahydropyrrolo[3,4-c]pyrrole-2-carboxylate] | < 25 | 25 to 75 | 25 to 75 |
| CC(=O)N1CCN(c2ccc(CN3CC4CN(C(=O)ON5C(=O)CCC5=O)CC4C3)c(F)c2)CC1 (stereo not drawn) [Example 101, 2,5-Dioxopyrrolidin-1-yl 5-[[4-(4-acetylpiperazin-1-yl)-2-fluorophenyl]methyl]-octahydropyrrolo[3,4-c]pyrrole-2-carboxylate] | < 25 | < 25 | < 25 |
| CCn1cc(CN2CC3CN(C(=O)OC(C(F)(F)F)C(F)(F)F)CC3C2)c(-c2ccccn2)n1 (stereo not drawn) [Example 70, 1,1,1,3,3,3-Hexafluoropropan-2-yl 5-[[1-ethyl-3-(pyridin-2-yl)-1H-pyrazol-4-yl]methyl]-octahydropyrrolo[3,4-c]pyrrole-2-carboxylate] | < 25 | < 25 | 25 to 75 |
| O=C(ON1C(=O)CCC1=O)N1CC2CN(Cc3ccc(Cl)cc3N3CCn4ncnc4C3)CC2C1 (stereo not drawn) [Example 108, 2,5-Dioxopyrrolidin-1-yl 5-(4-chloro-2-(5,6-dihydro-[1,2,4]triazolo[1,5-a]pyrazin-7(8H)-yl)benzyl)-hexahydropyrrolo[3,4-c]pyrrole-2(1H)-carboxylate] | < 25 | < 25 | < 25 |
| O=C(OC(C(F)(F)F)C(F)(F)F)N1CC2CN(Cc3ccc(Cl)cc3N3CCOCC3)CC2C1 (stereo not drawn) [Example 18, 1,1,1,3,3,3-Hexafluoropropan-2-yl 5-[[4-chloro-2-(morpholin-4-yl)phenyl]methyl]-octahydropyrrolo[3,4-c]pyrrole-2-carboxylate] | 25 to 75 | 25 to 75 | > 75 |
| O=C(ON1C(=O)CCC1=O)N1CC2CN(Cc3ccc(Cl)cc3N3CCC3)CC2C1 (stereo not drawn) [Example 113, 2,5-Dioxopyrrolidin-1-yl 5-[[2-(azetidin-1-yl)-4-chlorophenyl]methyl]-octahydropyrrolo[3,4-c]pyrrole-2-carboxylate] | < 25 | 25 to 75 | > 75 |
| O=C(ON1C(=O)CCC1=O)N1CC2CN(Cc3ccc(Cl)cc3N3CCC(C(=O)N4CCCC4)CC3)CC2C1 (stereo not drawn) [Example 111, 2,5-Dioxopyrrolidin-1-yl 5-[(4-chloro-2-[4-[(pyrrolidin-1-yl)carbonyl]piperidin-1-yl]phenyl)methyl]-octahydropyrrolo[3,4-c]pyrrole-2-carboxylate] | < 25 | < 25 | 25 to 75 |
| CC(=O)N1CCN(c2cc(C(C)C)ccc2CN2CC3CN(C(=O)ON4C(=O)CCC4=O)CC3C2)CC1 (stereo not drawn) [Example 99, 2,5-Dioxopyrrolidin-1-yl 5-[[2-(4-acetylpiperazin-1-yl)-4-(propan-2-yl)phenyl]methyl]-octahydropyrrolo[3,4-c]pyrrole-2-carboxylate] | < 25 | < 25 | < 25 |
| CC(=O)N1CCC(c2nn(C(C)C)cc2CN2CC3CN(C(=O)ON4C(=O)CCC4=O)CC3C2)CC1 (stereo not drawn) [Example 119, 2,5-Dioxopyrrolidin-1-yl 5-[[3-(1-acetylpiperidin-4-yl)-1-(propan-2-yl)-1H-pyrazol-4-yl]methyl]-octahydropyrrolo[3,4-c]pyrrole-2-carboxylate] | < 25 | < 25 | < 25 |
| CC(=O)N1CCN(c2cc(F)ccc2CN2CC3CN(C(=O)ON4C(=O)CCC4=O)CC3C2)CC1 (stereo not drawn) [Example 92, 2,5-Dioxopyrrolidin-1-yl 5-[[2-(4-acetylpiperazin-1-yl)-4-fluorophenyl]methyl]-octahydropyrrolo[3,4-c]pyrrole-2-carboxylate] | < 25 | < 25 | < 25 |
| Cn1cc(CN2CC3CN(C(=O)ON4C(=O)CCC4=O)CC3C2)c(-c2ccccc2Cl)n1 (stereo not drawn) [Example 115, 2,5-Dioxopyrrolidin-1-yl 5-[[3-(2-chlorophenyl)-1-methyl-1H-pyrazol-4-yl]methyl]-octahydropyrrolo[3,4-c]pyrrole-2-carboxylate] | < 25 | < 25 | 25 to 75 |
| Cc1cccc(-c2cc(CN3CC4CN(C(=O)ON5C(=O)CCC5=O)CC4C3)n(C)n2)c1 (stereo not drawn) [Example 199, 2,5-dioxopyrrolidin-1-yl 5-((1-methyl-3-(m-tolyl)-1H-pyrazol-5-yl)methyl)hexahydropyrrolo[3,4-c]pyrrole-2(1H)-carboxylate] | < 25 | < 25 | 25 to 75 |
